Results from US10722520B2, “Heterocyclic compounds and their use in preventing or treating bacterial infections” (MUTABILIS, priority 2016, dated 2020).

Tests used:
TEM-1 = TEM-1 (Escherichia coli, UniProt P62593)
OXA-1 = OXA-1 (Escherichia coli, UniProt P13661)
K. oxytoca UFR21 = assay: MIC of compound alone, broth microdilution; format: cell-based; conditions: Klebsiella oxytoca; strain UFR21: K. oxytoca; TEM-1, CTX-M-15, OXA-48; read-out: MIC compounds of the invention alone
Method in brief: (§1)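 Growth inhibition was scored by eye after 16-20 h at 35° C (room air), with bacteria from log phase seeded at 5×10^5 cfu/mL final in cation-adjusted Mueller-Hinton medium.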

E. cloacae UFR70 = assay: MIC of compound alone, broth microdilution; format: cell-based; conditions: Enterobacter cloacae; strain UFR70: E. cloacae; TEM-1, CTX-M-15, CMY-2, OXA-1, Porin loss; read-out: MIC compounds of the invention alone
Method in brief: as §1

K. pneumoniae UFR77 = assay: MIC of compound alone, broth microdilution; format: cell-based; conditions: Klebsiella pneumoniae; strain UFR77: K. pneumoniae; CMY-2; read-out: MIC compounds of the invention alone
Method in brief: as §1

E. coli UFR32 = assay: MIC of compound alone, broth microdilution; format: cell-based; conditions: Escherichia coli; strain UFR32: E. coli; TEM-1, VEB-1, OXA-10; read-out: MIC compounds of the invention alone
Method in brief: as §1

E. coli UFR74 = assay: MIC of compound alone, broth microdilution; format: cell-based; conditions: Escherichia coli; strain UFR74: E. coli; SHV-1, DHA-1; read-out: MIC compounds of the invention alone
Method in brief: as §1

E. cloacae UFR85 = assay: MIC of compound alone, broth microdilution; format: cell-based; conditions: Enterobacter cloacae; strain UFR85: E. cloacae; TEM-1, CTX-M-15, AmpC; read-out: MIC compounds of the invention alone
Method in brief: as §1

E. cloacae P99 = assay: MIC of compound alone, broth microdilution; format: cell-based; conditions: Enterobacter cloacae; strain P99: E. cloacae; AmpC; read-out: MIC compounds of the invention alone
Method in brief: as §1

E. coli UFR39 = assay: MIC of compound alone, broth microdilution; format: cell-based; conditions: Escherichia coli, UFR39, read-out: MIC compounds of the invention alone
Method in brief: as §1

P. aeruginosa CIP107051 = assay: MIC of compound alone, broth microdilution; format: cell-based; conditions: Pseudomonas aeruginosa; strain CIP107051: P. aeruginosa; TEM-24; read-out: MIC compounds of the invention alone
Method in brief: as §1

E. coli 131119 = assay: MIC of compound alone, broth microdilution; format: cell-based; conditions: Escherichia coli; strain 131119: E. coli; TEM-1, OXA-48; read-out: MIC compounds of the invention alone
Method in brief: as §1

K. pneumoniae 6299 = assay: MIC of compound alone, broth microdilution; format: cell-based; conditions: Klebsiella pneumoniae; strain 6299: K. pneumoniae; TEM-1, SHV-11, OXA-163; read-out: MIC compounds of the invention alone
Method in brief: as §1

K. pneumoniae UFR68 = assay: MIC of compound alone, broth microdilution; format: cell-based; conditions: Klebsiella pneumoniae; strain UFR68: K. pneumoniae; TEM-1, SHV-11, CTX-M-15, KPC-3; read-out: MIC compounds of the invention alone
Method in brief: as §1

E. coli UFR41 = assay: MIC of compound alone, broth microdilution; format: cell-based; conditions: Escherichia coli; strain UFR41: E. coli; TEM-1, CTX-M-15, CMY-2, OXA-1, NDM-4; read-out: MIC compounds of the invention alone
Method in brief: as §1

K. pneumoniae BAA-1898 = assay: MIC of compound alone, broth microdilution; format: cell-based; conditions: Klebsiella pneumoniae, BAA1898; strain BAA-1898: K. pneumoniae; TEM-1, SHV-11, SHV-12, KPC-2; read-out: MIC compounds of the invention alone
Method in brief: as §1

E. coli UFR18 = assay: MIC of compound alone, broth microdilution; format: cell-based; conditions: Escherichia coli; strain UFR18: E. coli; CTX-M-15, OXA-204; read-out: MIC compounds of the invention alone
Method in brief: as §1

K. pneumoniae UFR24 = assay: MIC of compound alone, broth microdilution; format: cell-based; conditions: Klebsiella pneumoniae; strain UFR24: K. pneumoniae; TEM-1, SHV-2, SHV-11, OXA-1, OXA-48, OXA-47; read-out: MIC compounds of the invention alone
Method in brief: as §1

K. pneumoniae 200047 = assay: MIC of compound alone, broth microdilution; format: cell-based; conditions: Klebsiella pneumoniae; strain 200047: K. pneumoniae; TEM-1, SHV-32, CTX-M-15, OXA-1; read-out: MIC compounds of the invention alone
Method in brief: as §1

E. cloacae UFR51 = assay: MIC of compound alone, broth microdilution; format: cell-based; conditions: Enterobacter cloacae; strain UFR51: E. cloacae; SHV-12, IMP-8; read-out: MIC compounds of the invention alone
Method in brief: as §1

K. pneumoniae 160143 = assay: MIC of compound alone, broth microdilution; format: cell-based; conditions: Klebsiella pneumoniae; strain 160143: K. pneumoniae; TEM-1, SHV-1, CTX-M-15, KPC-2, OXA-1; read-out: MIC compounds of the invention alone
Method in brief: as §1

E. cloacae 260508 = assay: MIC of compound alone, broth microdilution; format: cell-based; conditions: Enterobacter cloacae; strain 260508: E. cloacae; TEM-1, CTX-M-15; read-out: MIC compounds of the invention alone
Method in brief: as §1

E. coli UFR61O = assay: MIC of compound alone, broth microdilution; format: cell-based; conditions: Escherichia coli; strain UFR61O: E. coli; TEM-1, KPC-2; read-out: MIC compounds of the invention alone
Method in brief: as §1

E. coli 190317 = assay: MIC of compound alone, broth microdilution; format: cell-based; conditions: Escherichia coli; strain 190317: E. coli; TEM-1, SHV-12, CTX-M-15, OXA-1; read-out: MIC compounds of the invention alone
Method in brief: as §1

KPC-2 = KPC-2 (Klebsiella pneumoniae, UniProt Q9F663)
OXA-15 = OXA-15 (Pseudomonas aeruginosa, UniProt Q51574); assay: biochemical

| SMILES | IC50 (TEM-1) [nM] | IC50 (OXA-1) [nM] | MIC (K. oxytoca UFR21) [µg/mL] | MIC (E. cloacae UFR70) [µg/mL] | MIC (K. pneumoniae UFR77) [µg/mL] | MIC (E. coli UFR32) [µg/mL] | MIC (E. coli UFR74) [µg/mL] | MIC (E. cloacae UFR85) [µg/mL] | MIC (E. cloacae P99) [µg/mL] | MIC (E. coli UFR39) [µg/mL] | MIC (P. aeruginosa CIP107051) [µg/mL] | MIC (E. coli 131119) [µg/mL] | MIC (K. pneumoniae 6299) [µg/mL] | MIC (K. pneumoniae UFR68) [µg/mL] | MIC (E. coli UFR41) [µg/mL] | MIC (K. pneumoniae BAA-1898) [µg/mL] | MIC (E. coli UFR18) [µg/mL] | MIC (K. pneumoniae UFR24) [µg/mL] | MIC (K. pneumoniae 200047) [µg/mL] | MIC (E. cloacae UFR51) [µg/mL] | further results |
| --- | --- | --- | --- | --- | --- | --- | --- | --- | --- | --- | --- | --- | --- | --- | --- | --- | --- | --- | --- | --- | --- |
| O=C1N2CC(n3nccn3)=CC(C2)N1OS(=O)(=O)O (stereo not drawn) [Example 3, sodium [7-oxo-3-(triazol-2-yl)-1,6-diazabicyclo[3.2.1]oct-3-en-6-yl]sulfate] | 0.73 | 200 | 8 | 4 | 4 | 2 | 8 | 4 | 8 | 8 | > 32 | 1 | 16 | 8 | 16 | 8 | 2 | 8 | 4 | 2 | MIC (K. pneumoniae 160143): 4 µg/mL; MIC (E. cloacae 260508): 4 µg/mL; MIC (E. coli UFR61O): 8 µg/mL; MIC (E. coli 190317): 2 µg/mL; IC50 (KPC-2): 12 nM; IC50 (OXA-15): 190 nM |
| O=C1N2CC(n3cncn3)=CC(C2)N1OS(=O)(=O)[O-].[Na+] (stereo not drawn) [Example 5, sodium [7-oxo-3-(1,2,4-triazol-1-yl)-1,6-diazabicyclo[3.2.1]oct-3-en-6-yl]sulfate] | 0.8 | 49 | 4 | 2 | 4 | 2 | 4 | 4 | 4 | 2 | > 32 | 2 | 4 | 4 | 4 | 4 | 2 | 2 | 2 | 4 | MIC (K. pneumoniae 160143): 2 µg/mL; MIC (E. cloacae 260508): 4 µg/mL; MIC (E. coli UFR61O): 8 µg/mL; MIC (E. coli 190317): 1 µg/mL; IC50 (KPC-2): 3 nM; IC50 (OXA-15): 27 nM |
| O=C1N2CC(n3ccnn3)=C[C@H](C2)N1OS(=O)(=O)O [Example 6, sodium [(5R)-7-oxo-3-(triazol-1-yl)-1,6-diazabicyclo[3.2.1]oct-3-en-6-yl]sulfate] | 0.36 | 31 | 1 | 0.5 | 1 | 0.5 | 1 | 1 | 1 | 1 | 32 | 0.5 | 2 | 1 | 2 | 2 | 0.5 | 1 | 1 | 1 | MIC (K. pneumoniae 160143): 1 µg/mL; MIC (E. cloacae 260508): 1 µg/mL; MIC (E. coli UFR61O): 2 µg/mL; MIC (E. coli 190317): 0.5 µg/mL; IC50 (KPC-2): 2.1 nM; IC50 (OXA-15): 21 nM |
